From ChEMBL document CHEMBL1201862, “PubChem BioAssay data set” (2004) come the findings set out here.

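Cells were grown in 96-well plates and exposed to each compound for 48 hours at five concentrations; endpoints were interpolated linearly between bracketing concentrations, or set to the highest concentration if not reached. GI50: concentration for 50% inhibition of growth.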 Activity calls are given as the source filed them. Cut-off read from the data, not from the text of the source: active = GI50 up to about 1.1 µM and inactive = higher.

Holding throughout (assay): NCI tumour cell line growth inhibition, 48 h
For assay [1], the system named is IGROV-1.
Assay [2] concerns NCI-H460.
For assay [3], the system named is U-251.
Assay [4] concerns SK-OV-3.
Assay [5] has as its system MDA-MB-435.
The test system of assay [6] is T47D.
In assay [7] the test system is SF-539.
Assay [8] concerns RPMI-8226.
Assay [9] deals with HCT-15.
Assay [10] relates to UACC-257.
The test system of assay [11] is NCI-H522.
The test system of assay [12] is ACHN.
Assay [13] has as its system MDA-MB-231.
The subject of assay [14] is HCC 2998.
Assay [15] relates to TK-10.
Assay [16] relates to HT-29.
The test system of assay [17] is EKVX.
Assay [18] has as its system OVCAR-3.
Assay [19] has as its system Hs-578T.
Assay [20] has as its system OVCAR-5.

Consider `COC(=O)c1n[nH]c(C)c1/N=N/N(C)CCC#N`, for which the GI50 is 2.13 µM (inactive) in assay [1]; 14.2 µM (inactive) in assay [2]; 16.7 µM (inactive) in [3]; 19.7 µM (inactive) in assay [4]; 59.8 µM (inactive) in [5]; 14 µM (inactive) in [6]. Also, the GI50 in assay [7] is 15.2 µM (inactive); in assay [8] it was 10.2 µM (inactive); in [9], 14.2 µM; in assay [10], 50.7 µM (inactive); in assay [11], 10.5 µM (inactive); in [12] it was 11.6 µM (inactive). Also, the GI50 was 24.8 µM (inactive) in assay [13]; 19.5 µM (inactive) in assay [14]; 20.9 µM (inactive) in assay [15]; 23.3 µM (inactive) in [16]; 13.7 µM (inactive) in assay [17]; 18.7 µM (inactive) in assay [18]. For the same compound, in assay [19], the GI50 is 20.8 µM (inactive).
With `CC1=C(C(=O)N[C@@H](Cc2ccccc2)C(=O)O)N2C(=O)[C@@H](NC(=O)[C@@H](N)CC(C)C)[C@H]2SC1`, the GI50 in assay [1], in assay [2], in assay [3], in [5], in [6] and in assay [7] was > 100 µM (inactive) in each case. Besides, the GI50 in assay [8] is > 100 µM (inactive); in [9] it was above 100 µM; in assay [10] it was > 100 µM (inactive); in [11], > 100 µM (inactive); in [12], > 100 µM (inactive); in assay [13], > 100 µM (inactive). The GI50 in [20], in assay [14], in assay [15], in [17], in assay [18] and in [19] was > 100 µM (inactive) each time.
Consider `O=C1CSC2(CC(/C=C/c3ccccc3Br)=NN2c2cccc(S(=O)(=O)O)c2)N1c1nc2ccccc2s1` (configuration not stated), for which the GI50 in [1] is 55.1 µM (inactive); in assay [2], > 100 µM (inactive); in assay [3] it was 75.5 µM (inactive); in [5] it was 43.1 µM (inactive); in [6], 27.6 µM (inactive); in assay [7], > 100 µM (inactive). Besides, the GI50 in assay [8] was 44.8 µM (inactive); in [9], above 100 µM; in [10], > 100 µM (inactive); in [11] it was 52 µM (inactive); in [12] it was > 100 µM (inactive); in [13], > 100 µM (inactive). The GI50 was > 100 µM (inactive) in [20]; > 100 µM (inactive) in assay [14]; 45.7 µM (inactive) in assay [15]; > 100 µM (inactive) in assay [16]; > 100 µM (inactive) in assay [17]; > 100 µM (inactive) in [19].
Consider `OCCCCCNc1c2ccccc2nc2ccccc12`, for which the GI50 in assay [1] is 3.03 µM (inactive); in assay [2], 1.01 µM (active); in [3] it was 3.73 µM (inactive); in [4], 3.05 µM (inactive); in assay [5], 2.68 µM (inactive); in assay [6], 2.82 µM (inactive). Also, the GI50 in assay [7] is 2.75 µM (inactive); in [8], 3.44 µM (inactive); in assay [9], 3.57 µM; in [10] it was 2.02 µM (inactive); in assay [11] it was 2.04 µM (inactive); in [12] it was 0.818 µM (active). Further, the GI50 in assay [13] is 2.74 µM (inactive); in [20], 2.51 µM (inactive); in assay [14] it was 1.01 µM (active); in assay [15] it was 3.6 µM (inactive); in assay [16], 1.44 µM (inactive); in assay [17], 3.4 µM (inactive). For the same compound, the GI50 in assay [18] is 3.86 µM (inactive); in [19], 3.18 µM (inactive).
As for `Cc1ccc(C)c(C(=N)c2ccccc2Cc2ccccc2)c1`, the GI50 in [1] is 25.6 µM (inactive); in assay [2] it was 14.7 µM (inactive); in assay [3], 15.5 µM (inactive); in assay [4], 26.8 µM (inactive); in assay [5] it was 17.9 µM (inactive); in assay [6], 21 µM (inactive). In addition, the GI50 in assay [7] was 17.9 µM (inactive); in assay [8] it was 12.3 µM (inactive); in assay [9], 24.7 µM; in [10] it was 22.9 µM (inactive); in assay [11], 13.2 µM (inactive); in assay [12], 18.2 µM (inactive). Moreover, the GI50 was 22.8 µM (inactive) in assay [13]; 25.9 µM (inactive) in [20]; 15.9 µM (inactive) in assay [14]; 47.9 µM (inactive) in [15]; 12.9 µM (inactive) in assay [16]; 19 µM (inactive) in assay [17]. Moreover, the GI50 in [18] was 13.3 µM (inactive); in [19] it was 5.42 µM (inactive).
`Cc1c2ccc3ccccc3c2c[n+]2ccccc12`: the GI50 was 43.5 µM (inactive) in assay [1]; 10.7 µM (inactive) in assay [2]; 1.66 µM (inactive) in assay [3]; 16.9 µM (inactive) in assay [4]; 12.6 µM (inactive) in [5]; 1.36 µM (inactive) in assay [6]. In addition, the GI50 in [7] is 8.41 µM (inactive); in assay [8], 19.5 µM (inactive); in assay [9], 59.2 µM; in assay [10], 7.62 µM (inactive); in assay [11], 3.41 µM (inactive); in [12], 56.5 µM (inactive). Further, the GI50 in assay [13] is 21.4 µM (inactive); in [20], 61.9 µM (inactive); in assay [14], 4.92 µM (inactive); in [15] it was 35.7 µM (inactive); in [16], 27.5 µM (inactive); in assay [17], 4.91 µM (inactive). In addition, the GI50 is 5.85 µM (inactive) in assay [18] and 2.26 µM (inactive) in assay [19].
Turning to `OC1CCCC1C(O)(C(F)(F)F)C(F)(F)F` (configuration not stated), the GI50 in assay [1], in [2], in assay [3], in assay [4], in [5] and in assay [6] was > 100 µM (inactive) each time. Besides, the GI50 in assay [7] was > 100 µM (inactive); in assay [8] it was > 100 µM (inactive); in assay [9], above 100 µM; in assay [10], > 100 µM (inactive); in [11] it was > 100 µM (inactive); in assay [12] it was > 100 µM (inactive). The GI50 in assay [13], in [20], in assay [14], in [15], in assay [16] and in [17] was > 100 µM (inactive) in each case. Moreover, the GI50 in assay [18] and in [19] was > 100 µM (inactive) each time.
With `NC(CCCCP(=O)(O)O)C(=O)O` (configuration not stated), the GI50 in assay [1], in assay [2], in assay [3], in assay [4], in [5] and in [6] was > 100 µM (inactive) in each case. Moreover, the GI50 in assay [7] is > 100 µM (inactive); in [8], > 100 µM (inactive); in assay [9] it was above 100 µM; in assay [10], > 100 µM (inactive); in [11], 26.9 µM (inactive); in [12] it was > 100 µM (inactive). Also, the GI50 in assay [13], in assay [20], in assay [14], in [15], in [16] and in [17] was > 100 µM (inactive) in each case. For the same compound, the GI50 in assay [18] and in [19] was > 100 µM (inactive) each time.
For the compound `Cc1ccc([N+](=O)[O-])cc1S(=O)(=O)Nc1ccc(C2=NOC(c3ccco3)C2)cc1` (configuration not stated), the GI50 was 24 µM (inactive) in [1]; 18.5 µM (inactive) in assay [2]; 28 µM (inactive) in assay [4]; 3.03 µM (inactive) in [5]; 22.8 µM (inactive) in assay [6]; 23 µM (inactive) in [7]. Further, the GI50 in assay [8] is 18.9 µM (inactive); in [9], 10.4 µM; in assay [10] it was 17.6 µM (inactive); in [11] it was 10.7 µM (inactive); in [12], 21.3 µM (inactive); in assay [13], 17.1 µM (inactive). The GI50 in assay [20] is 22.9 µM (inactive); in [14] it was 17.2 µM (inactive); in assay [15], 31.2 µM (inactive); in assay [16], 22.8 µM (inactive); in assay [17] it was 24.2 µM (inactive); in assay [18], 14.8 µM (inactive). The GI50 in assay [19] is 29.8 µM (inactive).
Consider `Cc1ccc(C2=Nc3c(N)nc(N)nc3NC(c3ccccc3)C2)cc1` (configuration not stated), for which the GI50 is 5.36 µM (inactive) in assay [1]; 12.8 µM (inactive) in [3]; 12.5 µM (inactive) in assay [4]; 1.92 µM (inactive) in assay [5]; 13.1 µM (inactive) in [6]; 12 µM (inactive) in [7]. Besides, the GI50 in [8] is 4.84 µM (inactive); in assay [9] it was 3.1 µM; in assay [10], 13.5 µM (inactive); in assay [11] it was 3.13 µM (inactive); in assay [12], 15.4 µM (inactive); in assay [13], 11.8 µM (inactive). Besides, the GI50 in [20] was 18 µM (inactive); in assay [14], 4.44 µM (inactive); in assay [15], 16.9 µM (inactive); in assay [16] it was 4.05 µM (inactive); in [17], 12.4 µM (inactive); in [18] it was 11.5 µM (inactive). Besides, the GI50 in [19] was 14 µM (inactive).
Turning to `Nc1ccccc1CCCC(=O)O`, the GI50 in [1], in assay [2], in [3], in [4], in [5] and in assay [6] was > 100 µM (inactive) each time. For the same compound, the GI50 in assay [7] was > 100 µM (inactive); in [8], > 100 µM (inactive); in [9], above 100 µM; in assay [10] it was > 100 µM (inactive); in assay [11] it was > 100 µM (inactive); in [12] it was > 100 µM (inactive). In addition, the GI50 in assay [13], in [20], in assay [14], in [15], in assay [16] and in [18] was > 100 µM (inactive) throughout. For the same compound, the GI50 in assay [19] was > 100 µM (inactive).
